In the NIST ThermoML archive (doi:10.1016/j.jct.2010.07.006):
Several values for one entry are separate records, joined by “and”; a condition that tells them apart may be missing. Identical values can stand only once. ± gives the expanded uncertainty stated by the source.

Details: Crystal, Calculated from knudsen effusion weight loss

Cc1cc(C(=O)O)c(C)o1 [2,5-dimethyl-3-furancarboxylic acid]
Details | vapor or sublimation pressure
309.19 K | 0.0001409 ± 7.1e-06 kPa and 0.000132 ± 7e-06 kPa and 0.0001359 ± 6.8e-06 kPa
311.12 K | 0.0001806 ± 9.1e-06 kPa and 0.0001768 ± 8.9e-06 kPa and 0.0001708 ± 8.6e-06 kPa
313.08 K | 0.0002273 ± 1.1e-05 kPa and 0.0002279 ± 1.1e-05 kPa and 0.0002259 ± 1.1e-05 kPa
315.18 K | 0.0002809 ± 1.4e-05 kPa and 0.0002804 ± 1.4e-05 kPa and 0.0002914 ± 1.5e-05 kPa
317.12 K | 0.0003673 ± 1.8e-05 kPa and 0.0003617 ± 1.8e-05 kPa and 0.0003524 ± 1.8e-05 kPa
319.08 K | 0.0004503 ± 2.3e-05 kPa and 0.0004556 ± 2.3e-05 kPa and 0.000449 ± 2.2e-05 kPa
321.18 K | 0.0005801 ± 2.9e-05 kPa and 0.0005612 ± 2.8e-05 kPa and 0.000567 ± 2.8e-05 kPa
323.09 K | 0.0007336 ± 3.7e-05 kPa and 0.0007218 ± 3.6e-05 kPa and 0.0007101 ± 3.6e-05 kPa
325.07 K | 0.0009185 ± 4.6e-05 kPa and 0.000908 ± 4.6e-05 kPa and 0.0008953 ± 4.5e-05 kPa
325.19 K | 0.0009292 ± 4.6e-05 kPa and 0.000927 ± 4.6e-05 kPa and 0.0008864 ± 4.5e-05 kPa
327.1 K | 0.001147 ± 0.00012 kPa and 0.001128 ± 0.00012 kPa and 0.001102 ± 0.00011 kPa
